Test results as given in patent publication US9587471B2, “Controlling bioavailability of nutrient additions in subsurface formations” (E I DU PONT DE NEMOURS AND COMPANY, priority 2008, dated 2017).
Structures can show the parent of a compound that is named as a salt.

Tests used:
[1] = Partition coefficient in an oil/water system; type: physicochemical
Protocol: In this Example a contribution to inhibitor dissipation made by adsorption of the inhibitor into the oil phase may be observed. For example, nitrate as a nitrogen source and electron acceptor and glucose as a growth substrate, each at 25 g/L concentration, may be added in combination to the injection water stream. In addition, benzalkonium chloride may be added to the inhibited nutrient composition. The composition may be pumped into the oil well formation for 5 hours. The industrial biocide inhibits growth of microbial populations in the oil well formation independent of the added nutrient concentrations. As illustrated in Example 2 until the benzalkonium chloride reaches a concentration of <0.1 g/L, microbial growth is inhibited. Using physical parameters common in oil well formations found in unconsolidated sandstone regions of the North Slope, dispersion modeling determines that it will take approximately fourteen days for flow dispersion to dilute benzalkonium chloride to approximately <0.1 g/L. In addition, it may be empirically determined, through laboratory experimentation, that the partition coefficient for benzalkonium chloride in an oil/water system is approximately 10. Therefore, rather than adding benzalkonium chloride at 2% concentration based on dispersion modeling, it is added at a 10% initial concentration to counter act losses due to adsorption. […]

[2] = system: Pseudomonas stutzeri strain LH4:15 (ATCC PTA-8823); test: Anaerobic growth and survival: biocidal versus biostatic inhibition; type: cell-based; settings: for change in Log cell number: day 0 vs day 7, anaerobic; for Final anaerobic vial OD: starting OD600 = 0.05
Protocol: In this invention, the anaerobic growth and survival was tested in 20 ml crimp-capped anaerobic vials, using a complete nutrient medium of the following composition: Na2HPO4.7H2O, 1.4 g/L, KH2PO4, 0.69 g/L, NH4Cl, 0.5 g/L, MgSO4.7H2O, 0.1/L g, SL-10 trace metals, 10 ml, NaCl, 7.5 g/L, NaHCO3, 7.2 g/L, sodium nitrate, 12 g/L, Na lactate, 7 g/L, yeast extract, 10 mg/L, pH 7.3-7.8.
The anaerobic growth and survival was tested as outlined above. […] Vials were inoculated using an overnight aerobic culture of Pseudomonas stutzeri strain LH4:15 (ATCC PTA-8823) in Luria Bertani medium (LB, Mediatech Inc., Herndon, Va.,) at a final OD600 of 0.05. Within 2 hours of inoculation, serial dilutions from each treatment vial were made into aerobic LB medium to determine the cell numbers at Day 0. After approximately 24 hours cell numbers were estimated by noting the highest positive dilution based on the presence or absence of turbidity in dilutions of 10^−1 to 10^−11 in the serial dilution plates. Cell numbers on Day 0 and Day 7 were measured to obtain a survival estimate during inhibitor exposure.

[3] = system: Pseudomonas stutzeri strain LH4:15 (ATCC PTA-8823); test: Aerobic growth response (turbidity) to varying concentrations of industrial preservatives; type: cell-based;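 on growth (turbidity): single plus means slight turbidity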
Protocol: (§1) Typically cells were grown at a temperature in the range of about 25° C. to about 40° C. in an appropriate medium.
Pseudomonas stutzeri strain LH4:15 (ATCC PTA-8823) was grown as outlined in Example 1. Various preservatives commonly used in the food, cosmetic, and water treatment industries were tested for their inhibitory effect at various concentrations (Table 2). Growth was monitored visually and positive growth was indicated by moderate to heavy turbidity.

[4] = Decline (hydrolysis) of ethyl formate in injection water; type: physicochemical; settings: in about four days, anaerobic, approximately 25° C., 0.2% added
Protocol: The growth delay allows deeper penetration into the oil well formation and more widespread MEOR activation.
(§2) Injection water was amended with sodium nitrate as electron acceptor plus a growth substrates. In addition 0.2% ethyl formate was added to the inhibited treatment. The injection water was incubated anaerobically at approximately 25° C. under an atmosphere of 80% nitrogen and 20% carbon dioxide, reflecting typical growth conditions in the North Slope oil well formations. Growth of the native populations, nitrate concentrations and ethyl formate concentrations were monitored over two weeks.

[5] = system: native anaerobic population in the injection water from the North Slope of Alaska; test: Growth and nitrate+nitrite consumption of native populations in injection water; type: cell-based
Protocol: as §2

[6] = system: Pseudomonas stutzeri strain LH4:15, ATCC PTA-8823; test: Aerobic growth response (turbidity) to varying concentrations of potential microbial nutrients; type: cell-based; further: key: − = no turbidity; + = slight turbidity; ++ = moderate to heavy turbidity
Protocol: as §1
Additional potential microbial nutrients were added at various concentrations as outlined in Table 1. Growth was monitored visually with positive growth indicated by moderate to heavy turbidity.

Benzalkonium chloride
partition coefficient [1]: approximately 10 | change in Log cell number ([2]; 0.01 g/L): 0 | Final anaerobic vial OD ([2]; 0.01 g/L): 0.12 | change in Log cell number ([2]; 0.04 g/L): 0 | Final anaerobic vial OD ([2]; 0.04 g/L): 0.01 | change in Log cell number ([2]; 0.08 g/L): −4 | Final anaerobic vial OD ([2]; 0.08 g/L): 0.02 | change in Log cell number ([2]; 0.1 g/L): Dead | Final anaerobic vial OD ([2]; 0.1 g/L): 0.02 | change in Log cell number ([2]; 0.5 g/L): Dead | Final anaerobic vial OD ([2]; 0.5 g/L): 0.06 | change in Log cell number ([2]; 1 g/L): Dead | Final anaerobic vial OD ([2]; 1 g/L): 0.32 | concentration that killed the cells on Day 0 ([2]; anaerobic vials): ≥ 0.1 g/L | growth (turbidity) ([3]; 0.0001 g/L): ++ | growth (turbidity) ([3]; 0.001 g/L): ++ | growth (turbidity) ([3]; 0.005 g/L): ++ | growth (turbidity) ([3]; 0.01 g/L): ++ | growth (turbidity) ([3]; 0.1 g/L): − | growth (turbidity) ([3]; 0.5 g/L): − | growth (turbidity) ([3]; 1 g/L): − | concentration that must be reached before inhibition of microbial growth ends ([3]; stated 'as illustrated in Example 2'): < 0.1 g/L

Oc1ccccc1 [phenol]
growth (turbidity) ([3]; 0.01 g/L): ++ | growth (turbidity) ([3]; 0.05 g/L): ++ | growth (turbidity) ([3]; 0.1 g/L): ++ | growth (turbidity) ([3]; 0.5 g/L): ++ | growth (turbidity) ([3]; 1 g/L): ++ | growth (turbidity) ([3]; 10 g/L): − | growth (turbidity) ([3]; 50 g/L): −

CCCCCCCCCCCCN(C)C [N,N,-dimethyldodecylamine]
growth (turbidity) ([3]; 0.0001 g/L): ++ | growth (turbidity) ([3]; 0.001 g/L): ++ | growth (turbidity) ([3]; 0.005 g/L): ++ | growth (turbidity) ([3]; 0.01 g/L): ++ | growth (turbidity) ([3]; 0.1 g/L): − | growth (turbidity) ([3]; 0.5 g/L): − | growth (turbidity) ([3]; 1 g/L): −

COC(=O)c1ccc(O)cc1 [Methylparaben]
change in Log cell number ([2]; 0.5 g/L): 0 | Final anaerobic vial OD ([2]; 0.5 g/L): 0.09 | change in Log cell number ([2]; 0.6 g/L): 0 | Final anaerobic vial OD ([2]; 0.6 g/L): 0.05 | change in Log cell number ([2]; 0.8 g/L): 1 | Final anaerobic vial OD ([2]; 0.8 g/L): 0.05 | change in Log cell number ([2]; 1 g/L): −1 | Final anaerobic vial OD ([2]; 1 g/L): 0.04 | change in Log cell number ([2]; 2.5 g/L): −2 | Final anaerobic vial OD ([2]; 2.5 g/L): 0.01 | effectiveness of the inhibitor in words ([2]; judged by OD600 and cell killing, Table 3): showed this desirable property at the lowest efficacious concentrations | growth (turbidity) ([3]; 0.01 g/L): ++ | growth (turbidity) ([3]; 0.05 g/L): ++ | growth (turbidity) ([3]; 0.1 g/L): ++ | growth (turbidity) ([3]; 0.5 g/L): + | growth (turbidity) ([3]; 1 g/L): − | growth (turbidity) ([3]; 2.5 g/L): −

CCOC=O [Ethyl formate]
decline of ethyl formate concentration [4]: 10 fold | change in Log cell number ([2]; 5 g/L): −2 | Final anaerobic vial OD ([2]; 5 g/L): 0.02 | change in Log cell number ([2]; 10 g/L): −6 | Final anaerobic vial OD ([2]; 10 g/L): 0.01 | change in Log cell number ([2]; 25 g/L): −6 | Final anaerobic vial OD ([2]; 25 g/L): 0.005 | change in Log cell number ([2]; 50 g/L): Dead | Final anaerobic vial OD ([2]; 50 g/L): 0.05 | change in Log cell number ([2]; 80 g/L): Dead | Final anaerobic vial OD ([2]; 80 g/L): 0.06 | delay of maximum growth ([5]; 0.2% concentration): four | effect on the maximum population in words ([5]; 0.2% concentration): longer maintenance of the maximum population | mean nitrate+nitrite loss rate ([5]; 0.2% ethyl formate): 190 ppm/day | consumption of electron acceptors nitrate+nitrite slower in the inhibited treatment ([5]; 0.2% ethyl formate vs no added ethyl formate): 31% | Growth response (turbidity) ([6]; 0.1 g/L, 24 hours of incubation): ++ | Growth response (turbidity) ([6]; 0.1 g/L, 48 hours of incubation): ++ | Growth response (turbidity) ([6]; 0.1 g/L, 120 hours of incubation): ++ | Growth response (turbidity) ([6]; 0.5 g/L, 24 hours of incubation): ++ | Growth response (turbidity) ([6]; 0.5 g/L, 48 hours of incubation): ++ | Growth response (turbidity) ([6]; 0.5 g/L, 120 hours of incubation): ++ | Growth response (turbidity) ([6]; 1 g/L, 24 hours of incubation): ++ | Growth response (turbidity) ([6]; 1 g/L, 48 hours of incubation): ++ | Growth response (turbidity) ([6]; 1 g/L, 120 hours of incubation): ++ | Growth response (turbidity) ([6]; 5 g/L, 24 hours of incubation): + | Growth response (turbidity) ([6]; 5 g/L, 48 hours of incubation): ++ | Growth response (turbidity) ([6]; 5 g/L, 120 hours of incubation): ++ | Growth response (turbidity) ([6]; 25 g/L, 24 hours of incubation): − | Growth response (turbidity) ([6]; 25 g/L, 48 hours of incubation): − | Growth response (turbidity) ([6]; 25 g/L, 120 hours of incubation): − | Growth response (turbidity) ([6]; 50 g/L, 24 hours of incubation): − | Growth response (turbidity) ([6]; 50 g/L, 48 hours of incubation): − | Growth response (turbidity) ([6]; 50 g/L, 120 hours of incubation): −

O=S(=O)([O-])[O-].OC[P+](CO)(CO)CO.OC[P+](CO)(CO)CO [Bis(tetrakis(hydroxymethyl))phosphonium sulfate]
growth (turbidity) ([3]; 0.1 g/L): ++ | growth (turbidity) ([3]; 0.2 g/L): ++ | growth (turbidity) ([3]; 0.3 g/L): − | growth (turbidity) ([3]; 0.4 g/L): −
